Reference: patent US20250230163A1, “SOLID FORMS OF HIV INTEGRASE INHIBITORS” (Gilead Sciences, Inc., priority 2023, published 2025)

Legend:
[1] = Hygroscopicity by dynamic vapor sorption (DVS); type: physicochemical; conditions: for solid form post DVS experiment: after sorption/desorption cycle up to 95% RH at 25° C.; for water absorbed (dynamic vapor sorption): up to 95% RH at 25° C.
Experimental: Hygroscopicity was studied using dynamic vapor sorption (DVS, TA Q5000 SA, TA Instruments, New Castle, DE or DVS, DVS Intrinsic, Surface Measurement Systems, London, UK). A sample (1-20 mg) was placed in an aluminum DVS pan and loaded on the sample side of the twin pan balance. The water sorption and desorption were studied as a function of relative humidity (RH) at 25° C. In 10% RH increments, the relative humidity was increased from 5% RH to 95% RH and then decreased back to 5%. […] Data analysis was performed using Universal Analysis 2000 Version 4.7A (TA Instruments, New Castle, DE) for TA DVS runs and Microsoft Excel for SMS DVS runs.

[2] = Physical form stability on drying under ambient conditions; type: physicochemical
Text: Compound of Formula I, Form II is a metastable methanol solvated phase. It was isolated when compound of Formula I, Form I was slurried in methanol for about 60 days and identified by x-ray of the wet cake. […] Compound of Formula I, Form III was also made when Form II was dried under ambient conditions.

solid form post DVS experiment [1] | water absorbed (dynamic vapor sorption) [1] | Structure (SMILES) | form conversion upon drying [2]
not have changed form | about 0.097% | O=C(NCc1c(F)cc(F)cc1F)c1cn2c(c(O)c1=O)C(=O)N1CCCC[C@H]2C1 [Compound of Formula I, Form I, (7S)-12-hydroxy-1,11-dioxo-N-(2,4,6-trifluorobenzyl)-1,4,5,6,7,11-hexahydro-3H-2,7-methanopyrido[1,2-a][1,4]diazonine-10-carboxamide] | –
– | – | O=C(NCc1c(F)cc(F)cc1F)c1cn2c(c(O)c1=O)C(=O)N1CCCC[C@H]2C1 [Compound of Formula I, Form II, (7S)-12-hydroxy-1,11-dioxo-N-(2,4,6-trifluorobenzyl)-1,4,5,6,7,11-hexahydro-3H-2,7-methanopyrido[1,2-a][1,4]diazonine-10-carboxamide] | convert to compound of Formula I, Form III
not have changed form | about 0.87% | O=C(NCc1c(F)cc(F)cc1F)c1cn2c(c(O)c1=O)C(=O)N1CCCC[C@H]2C1 [Compound of Formula I, Form III, (7S)-12-hydroxy-1,11-dioxo-N-(2,4,6-trifluorobenzyl)-1,4,5,6,7,11-hexahydro-3H-2,7-methanopyrido[1,2-a][1,4]diazonine-10-carboxamide] | –
not have changed form | about 3.5% | O=C(NCc1c(F)cc(F)cc1F)c1cn2c(c(O)c1=O)C(=O)N1CCCC[C@H]2C1 [Compound of Formula I, Form IV, (7S)-12-hydroxy-1,11-dioxo-N-(2,4,6-trifluorobenzyl)-1,4,5,6,7,11-hexahydro-3H-2,7-methanopyrido[1,2-a][1,4]diazonine-10-carboxamide] | –
